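Briefly, cells in 96-well plates were exposed to five compound concentrations for 48 h, and endpoints were estimated by linear interpolation. GI50: concentration for 50% inhibition of growth. TGI marks complete inhibition of growth.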
Key:
Experiment in all cases: NCI tumour cell line growth inhibition, 48 h
ACHN renal = system: ACHN renal
HOP-92 NSCLC = system: HOP-92 NSCLC
SK-MEL-5 melanoma = system: SK-MEL-5 melanoma
HCT-116 colon = system: HCT-116 colon
DMS 273 small cell lung = system: DMS 273 small cell lung
MOLT-4 leukemia = system: MOLT-4 leukemia
IGROV1 ovarian = system: IGROV1 ovarian
M14 melanoma = system: M14 melanoma
UACC-62 melanoma = system: UACC-62 melanoma
RPMI-8226 leukemia = system: RPMI-8226 leukemia
SF-295 CNS = system: SF-295 CNS
SK-OV-3 ovarian = system: SK-OV-3 ovarian
CAKI-1 renal = system: CAKI-1 renal
KM12 colon = system: KM12 colon
SF-268 CNS = system: SF-268 CNS
EKVX NSCLC = system: EKVX NSCLC
K-562 leukemia = system: K-562 leukemia
HT29 colon = system: HT29 colon
DLD-1 colon = system: DLD-1 colon
SW-620 colon = system: SW-620 colon
HL-60(TB) leukemia = system: HL-60(TB) leukemia
LOX IMVI melanoma = system: LOX IMVI melanoma
A549 NSCLC = system: A549 NSCLC
OVCAR-3 ovarian = system: OVCAR-3 ovarian
CCRF-CEM leukemia = system: CCRF-CEM leukemia
786-0 renal = system: 786-0 renal
NCI-H226 lung = system: NCI-H226 lung
KM20L2 colon = system: KM20L2 colon
SF-539 CNS = system: SF-539 CNS
UACC-257 melanoma = system: UACC-257 melanoma
NCI-H522 lung = system: NCI-H522 lung
LXFL 529 NSCLC = system: LXFL 529 NSCLC
TK-10 renal = system: TK-10 renal
SNB-75 CNS = system: SNB-75 CNS
M19-MEL melanoma = system: M19-MEL melanoma
SK-MEL-28 melanoma = system: SK-MEL-28 melanoma
SR leukemia = system: SR leukemia
HCC-2998 colon = system: HCC-2998 colon
SNB-19 CNS = system: SNB-19 CNS
UO-31 renal = system: UO-31 renal
NCI-H460 lung = system: NCI-H460 lung
HCT-15 colon = system: HCT-15 colon
OVCAR-5 ovarian = system: OVCAR-5 ovarian
SN12C renal = system: SN12C renal
SK-MEL-2 melanoma = system: SK-MEL-2 melanoma
HOP-62 NSCLC = system: HOP-62 NSCLC
HOP-18 NSCLC = system: HOP-18 NSCLC
U251 CNS = system: U251 CNS
OVCAR-8 ovarian = system: OVCAR-8 ovarian
COLO 205 colon = system: COLO 205 colon
RXF 393 renal = system: RXF 393 renal
OVCAR-4 ovarian = system: OVCAR-4 ovarian
A498 renal = system: A498 renal
MALME-3M melanoma = system: MALME-3M melanoma
SNB-78 CNS = system: SNB-78 CNS
NCI-H23 lung = system: NCI-H23 lung
XF 498 CNS = system: XF 498 CNS
DMS 114 small cell lung = system: DMS 114 small cell lung

N#CC(c1ccc(Cl)cc1)c1c(O)nc2ccc(=N)cc-2n1O (stereo not given)
TGI (ACHN renal): > 100 µM | TGI (HOP-92 NSCLC): > 100 µM | TGI (SK-MEL-5 melanoma): > 100 µM | TGI (HCT-116 colon): > 100 µM | TGI (DMS 273 small cell lung): > 100 µM | TGI (MOLT-4 leukemia): > 100 µM | TGI (IGROV1 ovarian): > 100 µM | TGI (M14 melanoma): > 100 µM | TGI (UACC-62 melanoma): > 100 µM | TGI (RPMI-8226 leukemia): > 100 µM | TGI (SF-295 CNS): > 100 µM | TGI (SK-OV-3 ovarian): > 100 µM | TGI (CAKI-1 renal): > 100 µM | TGI (KM12 colon): > 100 µM | TGI (SF-268 CNS): > 100 µM | TGI (EKVX NSCLC): > 100 µM | TGI (K-562 leukemia): > 100 µM | TGI (HT29 colon): > 100 µM | TGI (DLD-1 colon): > 100 µM | TGI (SW-620 colon): > 100 µM | TGI (HL-60(TB) leukemia): > 100 µM | TGI (LOX IMVI melanoma): > 100 µM | TGI (A549 NSCLC): > 100 µM | TGI (OVCAR-3 ovarian): > 100 µM | TGI (CCRF-CEM leukemia): > 100 µM | TGI (786-0 renal): > 100 µM | TGI (NCI-H226 lung): > 100 µM | TGI (KM20L2 colon): > 100 µM | TGI (SF-539 CNS): > 100 µM | TGI (UACC-257 melanoma): > 100 µM | TGI (NCI-H522 lung): > 100 µM | TGI (LXFL 529 NSCLC): > 100 µM | TGI (TK-10 renal): > 100 µM | TGI (SNB-75 CNS): > 100 µM | TGI (M19-MEL melanoma): > 100 µM | TGI (SK-MEL-28 melanoma): > 100 µM | TGI (SR leukemia): > 100 µM

CC(=O)[CH-]C(=O)c1ccccc1.CC(=O)[CH-]C(=O)c1ccccc1.COc1cccc([O-])c1[O-].[Ti+4]
GI50 (HCC-2998 colon): 90.2 µM | TGI (HCC-2998 colon): > 100 µM | GI50 (ACHN renal): 94.9 µM | TGI (ACHN renal): > 100 µM | GI50 (HOP-92 NSCLC): 57.8 µM | TGI (HOP-92 NSCLC): > 100 µM | GI50 (SK-MEL-5 melanoma): 93.3 µM | TGI (SK-MEL-5 melanoma): > 100 µM | GI50 (SNB-19 CNS): 64.3 µM | TGI (SNB-19 CNS): > 100 µM | GI50 (UO-31 renal): > 100 µM | TGI (UO-31 renal): > 100 µM | GI50 (HCT-116 colon): 32.1 µM | TGI (HCT-116 colon): > 100 µM | GI50 (MOLT-4 leukemia): 33.1 µM | TGI (MOLT-4 leukemia): > 100 µM | GI50 (IGROV1 ovarian): > 100 µM | TGI (IGROV1 ovarian): > 100 µM | GI50 (M14 melanoma): 64.9 µM | TGI (M14 melanoma): > 100 µM | GI50 (UACC-62 melanoma): 39.9 µM | TGI (UACC-62 melanoma): > 100 µM | GI50 (RPMI-8226 leukemia): 57.1 µM | TGI (RPMI-8226 leukemia): > 100 µM | GI50 (NCI-H460 lung): 52 µM | TGI (NCI-H460 lung): > 100 µM | GI50 (SF-295 CNS): 70.4 µM | TGI (SF-295 CNS): > 100 µM | GI50 (SK-OV-3 ovarian): 53.9 µM | TGI (SK-OV-3 ovarian): > 100 µM | GI50 (HCT-15 colon): 50.2 µM | TGI (HCT-15 colon): > 100 µM | GI50 (OVCAR-5 ovarian): > 100 µM | TGI (OVCAR-5 ovarian): > 100 µM | GI50 (CAKI-1 renal): > 100 µM | TGI (CAKI-1 renal): > 100 µM | GI50 (SN12C renal): 49.1 µM | TGI (SN12C renal): > 100 µM | GI50 (SK-MEL-2 melanoma): 24.8 µM | TGI (SK-MEL-2 melanoma): 62.4 µM | GI50 (KM12 colon): 33.4 µM | TGI (KM12 colon): > 100 µM | GI50 (SF-268 CNS): 47.6 µM | TGI (SF-268 CNS): > 100 µM | GI50 (K-562 leukemia): 31.6 µM | TGI (K-562 leukemia): > 100 µM | GI50 (HOP-62 NSCLC): 71.4 µM | TGI (HOP-62 NSCLC): > 100 µM | GI50 (HT29 colon): 64.5 µM | TGI (HT29 colon): > 100 µM | GI50 (DLD-1 colon): 69.2 µM | TGI (DLD-1 colon): > 100 µM | GI50 (SW-620 colon): 52.6 µM | TGI (SW-620 colon): > 100 µM | GI50 (HL-60(TB) leukemia): 20.3 µM | TGI (HL-60(TB) leukemia): 98.2 µM | GI50 (LOX IMVI melanoma): 25 µM | TGI (LOX IMVI melanoma): > 100 µM | GI50 (HOP-18 NSCLC): 25.9 µM | TGI (HOP-18 NSCLC): 63.5 µM | GI50 (A549 NSCLC): > 100 µM | TGI (A549 NSCLC): > 100 µM | GI50 (OVCAR-3 ovarian): 40.5 µM | TGI (OVCAR-3 ovarian): > 100 µM | GI50 (CCRF-CEM leukemia): 6.42 µM | TGI (CCRF-CEM leukemia): > 100 µM | GI50 (U251 CNS): 25.7 µM | TGI (U251 CNS): > 100 µM | GI50 (OVCAR-8 ovarian): 42.4 µM | TGI (OVCAR-8 ovarian): > 100 µM | GI50 (786-0 renal): 49 µM | TGI (786-0 renal): > 100 µM | GI50 (COLO 205 colon): 37.9 µM | TGI (COLO 205 colon): > 100 µM | GI50 (NCI-H226 lung): 15.9 µM | TGI (NCI-H226 lung): 73 µM | GI50 (RXF 393 renal): 30 µM | TGI (RXF 393 renal): > 100 µM | GI50 (KM20L2 colon): 52.2 µM | TGI (KM20L2 colon): > 100 µM | GI50 (SF-539 CNS): 24.4 µM | TGI (SF-539 CNS): 65.6 µM | GI50 (OVCAR-4 ovarian): 54.3 µM | TGI (OVCAR-4 ovarian): > 100 µM | GI50 (UACC-257 melanoma): > 100 µM | TGI (UACC-257 melanoma): > 100 µM | GI50 (A498 renal): 72.5 µM | TGI (A498 renal): > 100 µM | GI50 (MALME-3M melanoma): 33.4 µM | TGI (MALME-3M melanoma): > 100 µM | GI50 (NCI-H522 lung): 17.2 µM | TGI (NCI-H522 lung): 31.7 µM | GI50 (LXFL 529 NSCLC): 34.3 µM | TGI (LXFL 529 NSCLC): > 100 µM | GI50 (TK-10 renal): > 100 µM | TGI (TK-10 renal): > 100 µM | GI50 (SNB-75 CNS): 43.5 µM | TGI (SNB-75 CNS): > 100 µM | GI50 (M19-MEL melanoma): 32.4 µM | TGI (M19-MEL melanoma): 89.7 µM | GI50 (SK-MEL-28 melanoma): 31 µM | TGI (SK-MEL-28 melanoma): > 100 µM

C#CCSc1nc(N)c2ncn(C3OC(CO)C(O)C3O)c2n1 (stereo not given)
TGI (HCC-2998 colon): > 100 µM | TGI (ACHN renal): > 100 µM | TGI (SK-MEL-5 melanoma): > 100 µM | TGI (SNB-19 CNS): > 100 µM | TGI (UO-31 renal): > 100 µM | TGI (HCT-116 colon): > 100 µM | TGI (DMS 273 small cell lung): > 100 µM | TGI (MOLT-4 leukemia): > 100 µM | TGI (IGROV1 ovarian): > 100 µM | TGI (RPMI-8226 leukemia): > 100 µM | TGI (NCI-H460 lung): > 100 µM | TGI (SF-295 CNS): > 100 µM | TGI (HCT-15 colon): > 100 µM | TGI (SN12C renal): > 100 µM | TGI (KM12 colon): > 100 µM | TGI (SF-268 CNS): > 100 µM | TGI (EKVX NSCLC): > 100 µM | TGI (K-562 leukemia): > 100 µM | TGI (SNB-78 CNS): > 100 µM | TGI (NCI-H23 lung): > 100 µM | TGI (HOP-62 NSCLC): > 100 µM | TGI (HT29 colon): > 100 µM | TGI (DLD-1 colon): > 100 µM | TGI (SW-620 colon): > 100 µM | TGI (HL-60(TB) leukemia): > 100 µM | TGI (LOX IMVI melanoma): > 100 µM | TGI (A549 NSCLC): > 100 µM | TGI (OVCAR-3 ovarian): > 100 µM | TGI (CCRF-CEM leukemia): > 100 µM | TGI (U251 CNS): > 100 µM | TGI (XF 498 CNS): > 100 µM | TGI (OVCAR-8 ovarian): > 100 µM | TGI (DMS 114 small cell lung): > 100 µM | TGI (786-0 renal): > 100 µM | TGI (COLO 205 colon): > 100 µM | TGI (RXF 393 renal): > 100 µM | TGI (OVCAR-4 ovarian): > 100 µM | TGI (UACC-257 melanoma): > 100 µM | TGI (A498 renal): > 100 µM | TGI (MALME-3M melanoma): > 100 µM | TGI (NCI-H522 lung): > 100 µM | TGI (LXFL 529 NSCLC): > 100 µM | TGI (TK-10 renal): > 100 µM | TGI (M19-MEL melanoma): > 100 µM | TGI (SK-MEL-28 melanoma): > 100 µM | TGI (SR leukemia): > 100 µM
